molecular target: T1, Dimer of Gag-Pol polyprotein [489-587] (Human immunodeficiency virus 1, UniProt P12497); experiment: Protease Inhibition Assay; settings: pH 5; 30 °C
T1 construct: 489-587
Description: A fluorimetric assay was used to determine the effects of the inhibitors on HIV-1 protease. This assay used an internally quenched fluorescent peptide substrate. The measurements were performed in 96-well plates with a Fluoroscan plate reader. Excitation and emission wavelengths were 355 nm and 500 nm, respectively.

Structure (SMILES)	Ki
O=C(N[C@H]1c2ccccc2C[C@H]1O)[C@H](OCc1cc(F)ccc1F)[C@H](O)[C@@H](O)[C@@H](OCc1cc(F)ccc1F)C(=O)N[C@H]1c2ccccc2C[C@H]1O [(2R,3R,4R,5R)-2,5-bis[(2,5-difluorophenyl)methoxy]-3,4-dihydroxy-N,N'-bis[(1S,2R)-2-hydroxy-2,3-dihydro-1H-inden-1-yl]hexanediamide]	3.29 nM
O=C(N[C@H]1c2ccccc2C[C@H]1O)[C@H](OCc1ccccc1F)[C@H](O)[C@@H](O)[C@@H](OCc1ccccc1F)C(=O)N[C@H]1c2ccccc2C[C@H]1O [(2R,3R,4R,5R)-2,5-bis[(2-fluorophenyl)methoxy]-3,4-dihydroxy-N,N'-bis[(1S,2R)-2-hydroxy-2,3-dihydro-1H-inden-1-yl]hexanediamide]	3.26 nM
O=C(N[C@H]1c2ccccc2C[C@H]1O)[C@H](OCc1cc(F)cc(F)c1)[C@H](O)[C@@H](O)[C@@H](OCc1cc(F)cc(F)c1)C(=O)N[C@H]1c2ccccc2C[C@H]1O [(2R,3R,4R,5R)-2,5-bis[(3,5-difluorophenyl)methoxy]-3,4-dihydroxy-N,N'-bis[(1S,2R)-2-hydroxy-2,3-dihydro-1H-inden-1-yl]hexanediamide]	5 nM
O=C(N[C@H]1c2ccccc2C[C@H]1O)[C@H](OCc1cccc(F)c1)[C@H](O)[C@@H](O)[C@@H](OCc1cccc(F)c1)C(=O)N[C@H]1c2ccccc2C[C@H]1O [(2R,3R,4R,5R)-2,5-bis[(3-fluorophenyl)methoxy]-3,4-dihydroxy-N,N'-bis[(1S,2R)-2-hydroxy-2,3-dihydro-1H-inden-1-yl]hexanediamide]	7.13 nM
O=C(N[C@H]1c2ccccc2C[C@H]1O)[C@H](OCc1ccc(F)cc1)[C@H](O)[C@@H](O)[C@@H](OCc1ccc(F)cc1)C(=O)N[C@H]1c2ccccc2C[C@H]1O [(2R,3R,4R,5R)-2,5-bis[(4-fluorophenyl)methoxy]-3,4-dihydroxy-N,N'-bis[(1S,2R)-2-hydroxy-2,3-dihydro-1H-inden-1-yl]hexanediamide]	5.39 nM
O=C(N[C@H]1c2ccccc2C[C@H]1O)[C@H](OCc1cccc(F)c1F)[C@H](O)[C@@H](O)[C@@H](OCc1cccc(F)c1F)C(=O)N[C@H]1c2ccccc2C[C@H]1O [N1,N6-Bis-[(2R)-hydroxy-1(S)-indanyl]-(2R,3R,4R,5R)-2.5-bis-(2,3-difluorobenzyloxy)-3,4-dihydroxyhexanediamide]	4 nM
O=C(N[C@H]1c2ccccc2C[C@H]1O)[C@H](OCc1ccc(F)cc1F)[C@H](O)[C@@H](O)[C@@H](OCc1ccc(F)cc1F)C(=O)N[C@H]1c2ccccc2C[C@H]1O [N1,N6-Bis-[(2R)-hydroxy-1(S)-indanyl]-(2R,3R,4R,5R)-2.5-bis-(2,4-difluorobenzyloxy)-3,4-dihydroxyhexanediamide]	1.65 nM
O=C(N[C@H]1c2ccccc2C[C@H]1O)[C@H](OCc1c(F)cccc1F)[C@H](O)[C@@H](O)[C@@H](OCc1c(F)cccc1F)C(=O)N[C@H]1c2ccccc2C[C@H]1O [N1,N6-Bis-[(2R)-hydroxy-1(S)-indanyl]-(2R,3R,4R,5R)-2.5-bis-(2,6-difluorobenzyloxy)-3,4-dihydroxyhexanediamide]	1.64 nM
O=C(N[C@H]1c2ccccc2C[C@H]1O)[C@H](OCc1ccc(F)c(F)c1)[C@H](O)[C@@H](O)[C@@H](OCc1ccc(F)c(F)c1)C(=O)N[C@H]1c2ccccc2C[C@H]1O [N1,N6-Bis-[(2R)-hydroxy-1(S)-indanyl]-(2R,3R,4R,5R)-2.5-bis-(3,4-difluorobenzyloxy)-3,4-dihydroxyhexanediamide]	3.9 nM
O=C(N[C@H]1c2ccccc2C[C@H]1O)[C@H](OCc1ccccc1)[C@H](O)[C@@H](O)[C@@H](OCc1ccccc1)C(=O)N[C@H]1c2ccccc2C[C@H]1O [symmetric/asymmetric inhibitor 2]	1.22 nM
